Measured values: the supplement of paper PMC10307832

How the values were obtained:
Experiment in all cases: relative viability (nuclei count vs DMSO), 5 days (fraction); higher = more cells survive
[1] = compound: NC(=O)[C@@H](CCC(F)(F)F)N(Cc1ccc(-c2ncon2)cc1F)S(=O)(=O)c1ccc(Cl)cc1 [Avagacestat] + COc1cccc2cc(-c3nc([C@H]4CC[C@H](C(=O)O)CC4)n4ncnc(N)c34)[nH]c12 [OSI-027] (partner 0.5 µM)
How it was run: (§1)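 Lung cancer cell lines were pin-tool dosed in 1536-well plates on the day after seeding, with either a lone drug or a fixed anchor-drug dose plus five library-drug doses (not always all listed) in √10 steps. Nuclei were counted on 4× images after 5 days. Relative viability is the ratio of treated-well to vehicle-well nuclei counts, with each value a median of duplicate plates.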

[2] = compound: NC(=O)[C@@H](CCC(F)(F)F)N(Cc1ccc(-c2ncon2)cc1F)S(=O)(=O)c1ccc(Cl)cc1 [Avagacestat] + CS(=O)(=O)CCNCc1ccc(-c2ccc3ncnc(Nc4ccc(OCc5cccc(F)c5)c(Cl)c4)c3c2)o1 [Lapatinib] (partner 2 µM)
How it was run: as §1

[3] = compound: NC(=O)[C@@H](CCC(F)(F)F)N(Cc1ccc(-c2ncon2)cc1F)S(=O)(=O)c1ccc(Cl)cc1 [Avagacestat] + C[C@]1(O)C[C@@H](c2nc(-c3ccc4ccc(-c5ccccc5)nc4c3)c3c(N)nccn32)C1 [Linsitinib] (partner 1 µM)
How it was run: as §1

[4] = compound: NC(=O)[C@@H](CCC(F)(F)F)N(Cc1ccc(-c2ncon2)cc1F)S(=O)(=O)c1ccc(Cl)cc1 [Avagacestat] + Cc1nc(NC(=O)N2CCC[C@H]2C(N)=O)sc1-c1ccnc(C(C)(C)C(F)(F)F)c1 [Alpelisib] (partner 2 µM)
How it was run: as §1

Cell Line	relative viability ([1]; first compound 0.08 µM)	relative viability ([1]; first compound 0.253 µM)	relative viability ([1]; first compound 0.8 µM)	relative viability ([1]; first compound 2.53 µM)	relative viability ([1]; first compound 8 µM)	relative viability ([2]; first compound 0.08 µM)	relative viability ([2]; first compound 0.253 µM)	relative viability ([2]; first compound 0.8 µM)	relative viability ([2]; first compound 2.53 µM)	relative viability ([2]; first compound 8 µM)	relative viability ([3]; first compound 0.08 µM)	relative viability ([3]; first compound 0.253 µM)	relative viability ([3]; first compound 0.8 µM)	relative viability ([3]; first compound 2.53 µM)	relative viability ([3]; first compound 8 µM)	relative viability ([4]; first compound 0.08 µM)	relative viability ([4]; first compound 0.253 µM)	relative viability ([4]; first compound 0.8 µM)	relative viability ([4]; first compound 2.53 µM)	relative viability ([4]; first compound 8 µM)
LXF-289	0.817	0.757	0.703	0.673	0.804	0.895	0.921	0.886	0.892	0.814	1.02	1.02	0.957	1.02	0.82	1.08	1.15	1.04	1.1	0.949
NCI-H23	0.778	0.619	0.8	0.627	0.537	1.61	1.29	1.17	1.05	1.32	0.759	0.636	0.675	0.548	0.456	0.912	0.766	0.768	0.683	0.688
NCI-H322M	0.519	0.562	0.571	0.501	0.488	0.556	0.555	0.601	0.504	0.432	0.826	0.892	1.03	0.823	0.681	0.762	0.787	0.904	0.633	0.54
NCI-H358	0.895	0.79	0.768	0.682	0.738	0.418	0.438	0.571	0.469	0.427	0.774	0.822	0.839	0.687	0.724	0.938	0.908	0.872	0.711	0.777
NCI-H460	0.953	1.19	0.752	0.551	0.418	1.16	1.49	1.58	0.916	0.726	1.01	0.896	1.35	0.673	0.588	0.724	0.538	0.688	0.472	0.357
NCI-H520	0.241	0.316	0.22	0.249	0.215	1.03	0.878	0.846	0.724	0.663	1.15	1.09	0.933	0.864	0.889	1.16	0.868	0.74	0.7	0.715
NCI-H596	0.81	0.814	0.688	0.734	0.593	1.09	1.03	1.15	1.11	0.944	1.15	1.21	1	0.827	0.986	0.584	0.482	0.479	0.466	0.491
NCI-H647	0.552	0.773	0.575	0.559	0.572	1.42	1.13	1.25	1.09	0.811	1.78	1.35	1.12	1.16	1.19	1.46	0.994	1.3	0.959	0.884
NCI-H650	0.638	0.472	0.576	0.573	0.445	1.2	1.04	1.03	1.1	0.835	1.22	0.927	1.08	0.912	0.848	1.12	1.57	1.21	1.32	1.19
NCI-H661	0.786	0.775	0.694	0.704	0.669	0.508	0.594	0.473		0.497	0.736	0.713	0.634		0.566	0.803	0.664	1.08		0.589
NCI-H727	0.675	0.632	0.92	0.521	0.517	0.939	0.875	1.19	0.876	0.671	0.252	0.342	0.35	0.278	0.26	0.749	0.682	0.695	0.467	0.558
NCI-H838	0.364	0.466	0.389	0.398	0.366	1.5	1.04	1.13	0.865	0.835	1.25	1.26	1.09	0.89	0.918	1.19	1.18	1.06	0.906	0.814
NCI-H1355	0.404	0.388	0.426	0.38	0.342	1.24	1.15	1.1	0.926	0.871	0.95	0.859	0.812	0.687	0.651	0.924	0.994	0.74	0.759	0.787
NCI-H1395	0.631	0.633	0.634	0.588	0.626	0.981	1.08	0.94	1.17	0.79	1.11	1.1	1.04	0.869	0.881	0.938	0.996	0.879	1.05	0.943
NCI-H1437	0.924	0.949	0.817	0.856	0.777	1.07	0.972	0.878	0.69	0.602	1.65	1.14	1.19	0.955	0.721	1.22	1.25	0.921	0.894	0.849
NCI-H1563	0.829	0.776	0.736	0.735	0.719	0.959	0.806	0.951	0.828	0.925	1.25	1.26	1.18	1.03	1	0.925	0.989	0.937	0.934	0.8
